# In patent US8404790B2, “Aqueous emulsion polymerization process for producing fluoropolymers” (3M Innovative Properties Company, priority 2005, dated 2013):
# Test: Determination of bio-accumulation: urinary clearance pharmacokinetic study in rats
# Conditions: oral gavage
# Protocol: The fluorinated surfactants were evaluated for urinary clearance using a pharmacokinetic study in rats. The goal was to measure the total amount of parent compound eliminated via urinary output and estimate the rate of elimination.
# The study utilized male Sprague Dawley rats, 6 to 8 weeks of age, and approximately 200 to 250 g body weight at study onset. The test compounds of table 2 were administered at a dose of 73 micromoles per kg body weight in rats (N=3 animals per tested compound). All test compounds were prepared in sterile deionized water and given to rats via oral gavage. After test compounds administration, the rats were housed individually in metabolism cages for urine collection: 0 to 6 hours, 6 to 24 hours, 24 to 48 hours and 72 to 96 hours. Animals were observed throughout the study for clinical signs of toxicity. Gross necropsy was performed at the termination of each study (96 hours post-dose) with sera and liver samples being retained from each animal
# The concentration of the parent compound or metabolites thereof were quantitatively measured via fluorine NMR on each urine sample for each animal at each time point based on internally added standards.
compound,measurement,setting,value
"O=C(O)C(F)(F)OC(F)(F)OC(F)(F)OC(F)(F)OC(F)(F)F [Compound 1, perfluoro-3,5,7,9-tetraoxadecanoic acid (CF3—(OCF2)4—COOH)]",T½ (renal elimination half-life),"73 micromoles per kg body weight, urine, fluorine NMR, exponential least squares curve fitting",15 h
same,% Recovery (96 h),"73 micromoles per kg, recovery of administered amount in urine after 96 h",50%
